Reference: patent US12534436B2, “Disubstituted adamantyl derivative or pharmaceutically acceptable salt thereof, and pharmaceutical composition for suppressing cancer growth comprising same as active ingredient” (ONECUREGEN CO., LTD., priority 2020, dated 2026)

What was measured:
[1] = system: mitochondrial ETC complex I; experiment: Mitochondrial respiration assay, complex I (malate/pyruvate); format: cell-based, human; settings: HepG2 cells, 100 μM LW1564 (FIG. 4B)
Method: Compounds that suppress mitochondrial respiration promote degradation of HIF-1α by increasing cellular oxygen content. Accordingly, it was investigated whether LW1564 (compound 21-3) affected mitochondrial respiration by measuring the oxygen consumption rate (OCR). Oxygen consumption was measured using an Oxytherm Clark-type electrode system (Hansatech, Norfolk, UK) (Chou, T. C. Theoretical basis, experimental design, and computerized simulation of synergism and antagonism in drug combination studies. Pharmacol. Rev. 58, 621-681 (2006)). HepG2 cells (2×10^7) were cultured with 2 μM LW1564 (compound 21-3) for 6 hours, collected, and then OCR was measured at 37° C. for 5 minutes with a thermoregulated controlled circulating system. For […] studies, digitonin-permeabilised HepG2 cells (2×10^7) were read on a detection device containing 2 ml of respiratory buffer (0.25 M sucrose, 2 mM KH2PO4, 5 mM MgCl2, 1 mM EDTA, 1 mM ADP, 20 mM MOPS, pH 7.4). The following substrates, which provide electrons to the components in the ETC, were then added: 5 mM sodium pyruvate, 5 mM sodium malate, 5 mM sodium succinate, 5 mM L-ascorbic acid and 0.2 mM N,N,N,N-tetra methyl-p-phenylenediamine (TMPD). Complex I, III and IV inhibitors (rotenone, antimycin A and KCN, respectively) were added to a final concentration of 1 μM. […]

intracellular oxygen = experiment: Intracellular oxygen with hypoxia probe MAR, HepG2 cells; format: cell-based, human; settings: hypoxic conditions, 6 hours, 500 nM MAR (FIG. 3D)
Method: Since a decrease in mitochondrial respiration means an increase in the amount of intracellular oxygen, it was evaluated whether the amount of intracellular oxygen increased using MAR, an azo-based hypoxia probe that produces fluorescence under hypoxic conditions. Under hypoxic states, HepG2 cells were cultured with LW1564 (compound 21-3) for 6 hours, stained with 500 nM MAR according to the manufacturer's instructions (Chou, T. C. Theoretical basis, experimental design, and computerized simulation of synergism and antagonism in drug combination studies. Pharmacol. Rev. 58, 621-681 (2006)), and analyzed with an IncuCyte ZOOM® system (Essen BioScience, MI, USA).

AMPK signaling = experiment: Western blot of AMPK/mTOR signaling in HepG2 cells; format: cell-based, human
various cancer cells = experiment: Cell viability by methylene blue colorimetric assay, various cancer cells; format: cell-based; settings: Homo sapiens; range over the cancer cell lines, methylene blue assay (FIG. 1B); read-out: GI50, proliferation of various cancer cells
Method: Among the newly synthesized adamantyl compounds, it was evaluated how compound 21c (LW1564, Compound 21-3), FIG. 1A) affected proliferation suppression of various cancer cells. Human breast cancer cells (MCF7), human cervical cancer cells (HeLa), human colorectal cancer cells (HCT116, HCT15, LoVo, SW480, SW620 and WiDr), human fibrosarcoma cells (HT1080), human gastric cancer cells (NCI-N87, NUGC3 and SNU484), human liver cancer cells (HepG2, HT17, Huh7, SHJ1 and SK-Hep1), human lung cancer cells (A549 and H1299), human pancreatic cancer cells (AsPC1 and MIA-PaCa2) and normal lung fibroblasts (CCD-34Lu and WI-38) were purchased from the American Type Culture Collection (Manassas, Virginia, USA) or KRIBB Cell Line Bank (Daejeon). For cell culture, cells were cultured in a DMEM medium (Gibco, Grand Island, New York, USA) supplemented with 5% (v/v) fetal bovine serum (WelGENE, Daegu, Korea) and 100 U/ml penicillin and 100 μg/ml streptomycin (Gibco). Cells were maintained at 37° C. in a humidified incubator with 5% CO2, and hypoxia and a multi-gas incubator (Sanyo, Osaka, Japan) was adjusted to 1% O2, 94% N2 and 5% CO2. Cell viability was determined by methylene blue colorimetric assay as described in the “Chou, T. C. […] The dye was eluted with 0.1% HCl (v/v) and quantified at 600 nm on a Molecular Devices EMax (Molecular Devices, CA, USA). […]

HepG2 cells = experiment: HepG2 cell proliferation at different glucose concentrations; format: cell-based, human; settings: low glucose (3 mM) versus high glucose (25 mM) medium (FIG. 5C)
Method: The glycolytic function is activated in many cancer cells. Accordingly, it was investigated whether LW1564 (compound 21-3) affected cancer cell proliferation according to glucose concentration. […] Next, in order to investigate the combined effect of LW1564 (compound 21-3), […] on the proliferation of HepG2 cells, Combination Index (CI) and isobologram analysis were performed. The CI value quantitatively represents the correlation between two drugs through GI50 analysis indicating the cell proliferation suppression concentration, and synergistic, additive and antagonistic effects are defined as CI<1, CI=1 and CI>1.

HepG2 xenografted tumors = experiment: HepG2 xenograft mouse model; format: in vivo, mice
Source text: In the HepG2 xenograft mouse model, the efficacy of LW1564 (compound 21-3) on tumor proliferation was investigated. All animal experiments were approved and performed according to the guidelines of the Institutional Animal Care and Use Committee of the Korea Research Institute of Bioscience & Biotechnology (Daejeon, Korea). Specific pathogen-free female nude mice (6 weeks old) were inoculated with HepG2 cells (1×10^7) subcutaneously on the right flank. When tumor volumes reached 100 to 150 mm^3, mice were randomly assigned to vehicle and LW1564 (compound 21-3) treatment groups (n=6). LW1564 (compound 21-3) (10 mg/kg) was administered intraperitoneally daily for 2 weeks. The tumor size was measured using a microcalliper, and the tumor volume was calculated using a standard volume: length×width^2×0.5. Significant differences between the two groups were determined by Student's t-test.

- GI50 (various cancer cells): 400 to 4600 nM
SMILES: COc1cc2c(cc1OC)CN(C(=O)C13CC4CC(C1)CC(c1ccc(OCC(=O)N5CCN(Cc6ccc(C(F)(F)F)cc6)CC5)cc1)(C4)C3)CC2 [Compound 21c, 2-(4-(3-(6,7-Dimethoxy-1,2,3,4-tetrahydroisoquinoline-2-carbonyl)adamantan-1-yl)phenoxy)-1-(4-(4-(trifluoromethyl)benzyl)piperazin-1-yl) ethanone]
- oxygen consumption by complex I [1]: reduced oxygen consumption by complex I
- MAR fluorescence (hypoxia probe) (intracellular oxygen): significantly reduced fluorescence
- phosphorylation of mTOR (AMPK signaling; concentration-dependent (FIG. 5A)): suppressed phosphorylation of mTOR
- phosphorylation of AMPK and ACC (AMPK signaling; western blot (FIG. 5A)): promoted phosphorylation of AMPK and its downstream protein, Acetyl-CoA carboxylase (ACC)
- cell proliferation suppression according to glucose concentration (HepG2 cells): stronger cell proliferation suppression efficacy in cells in a medium with a low glucose concentration (3 mM)
- weight of the tumors removed from the mice (HepG2 xenografted tumors; 10 mg/kg intraperitoneally daily for 2 weeks (FIG. 6 middle)): reduced
- reduction in tumor size compared to the control group (HepG2 xenografted tumors; 10 mg/kg intraperitoneally daily for 2 weeks, female nude mice (FIG. 6 left)): 67%
